Laboratory results: ChEMBL document CHEMBL3734723, “Synthesis and anticancer activity of 6-heteroarylcoumarins” (2015)

Key:
Format in all cases: functional
[1] = Growth inhibition of human SNB19 cells incubated for 48 hrs by sulforhodamine B assay; conditions: SNB-19, 48 h
HT-29 = assay: Growth inhibition of human HT-29 cells incubated for 48 hrs by sulforhodamine B assay; conditions: HT-29, 48 h
NCI-H23 = assay: Growth inhibition of human NCI-H23 cells incubated for 48 hrs by sulforhodamine B assay; conditions: NCI-H23, 48 h
[2] = Growth inhibition of human UACC62 cells incubated for 48 hrs by sulforhodamine B assay; conditions: UACC-62, 48 h
A549 = assay: Growth inhibition of human A549 cells incubated for 48 hrs by sulforhodamine B assay; conditions: A549, 48 h
[3] = Cytotoxicity against human NCI-ADR-RES cells assessed as cell growth at 10 uM incubated for 48 hrs by sulforhodamine B assay; conditions: read-out: Activity
[4] = Growth inhibition of human CNS cancer cells after 48 hrs by sulforhodamine B assay; conditions: Cancer cell lines
[5] = Growth inhibition of human DU145 cells incubated for 48 hrs by sulforhodamine B assay; conditions: DU-145, 48 h
[6] = Cytotoxicity against human SF295 cells assessed as cell growth at 10 uM incubated for 48 hrs by sulforhodamine B assay; conditions: SF-295, 48 h, read-out: Activity
[7] = Growth inhibition of human IGROV1 cells incubated for 48 hrs by sulforhodamine B assay; conditions: IGROV-1, 48 h
SR = assay: Cytotoxicity against human SR cells assessed as cell growth at 10 uM incubated for 48 hrs by sulforhodamine B assay; conditions: read-out: Activity
Malme-3M [8] = assay: Cytotoxicity against human MALME-3M cells assessed as cell growth at 10 uM incubated for 48 hrs by sulforhodamine B assay; conditions: read-out: Activity
MDA-MB-435 = assay: Cytotoxicity against human MDA-MB-435 cells assessed as cell growth at 10 uM incubated for 48 hrs by sulforhodamine B assay; conditions: MDA-MB-435, 48 h, read-out: Activity
MDA-MB-231 [9] = assay: Growth inhibition of human MDA-MB-231 cells incubated for 48 hrs by sulforhodamine B assay; conditions: MDA-MB-231, 48 h
[10] = Cytotoxicity against human UO31 cells assessed as cell growth at 10 uM incubated for 48 hrs by sulforhodamine B assay; conditions: UO-31, 48 h, read-out: Activity
[11] = Growth inhibition of human HOP62 cells incubated for 48 hrs by sulforhodamine B assay; conditions: HOP-62, 48 h
[12] = Growth inhibition of human NCI-ADR-RES cells incubated for 48 hrs by sulforhodamine B assay
[13] = Growth inhibition of human SNB75 cells incubated for 48 hrs by sulforhodamine B assay; conditions: SNB-75, 48 h
NCI-H522 = assay: Cytotoxicity against human NCI-H522 cells assessed as cell growth at 10 uM incubated for 48 hrs by sulforhodamine B assay; conditions: NCI-H522, 48 h, read-out: Activity
[14] = Growth inhibition of human SW620 cells incubated for 48 hrs by sulforhodamine B assay; conditions: SW-620, 48 h
[15] = Growth inhibition of human UACC257 cells incubated for 48 hrs by sulforhodamine B assay; conditions: UACC-257, 48 h
[16] = Growth inhibition of human breast cancer cells after 48 hrs by sulforhodamine B assay; conditions: Cancer cell lines
[17] = Cytotoxicity against human PC3 cells assessed as cell growth at 10 uM incubated for 48 hrs by sulforhodamine B assay; conditions: PC-3, 48 h, read-out: Activity
A498 = assay: Growth inhibition of human A498 cells incubated for 48 hrs by sulforhodamine B assay; conditions: A498, 48 h
[18] = Growth inhibition of human COLO205 cells incubated for 48 hrs by sulforhodamine B assay; conditions: COLO 205, 48 h
[19] = Cytotoxicity against human TK10 cells assessed as cell growth at 10 uM incubated for 48 hrs by sulforhodamine B assay; conditions: TK-10, 48 h, read-out: Activity
Malme-3M [20] = assay: Growth inhibition of human MALME-3M cells incubated for 48 hrs by sulforhodamine B assay
[21] = Growth inhibition of human prostate cancer cells after 48 hrs by sulforhodamine B assay; conditions: Cancer cell lines
[22] = Cytotoxicity against human SNB19 cells assessed as cell growth at 10 uM incubated for 48 hrs by sulforhodamine B assay; conditions: SNB-19, 48 h, read-out: Activity
[23] = Growth inhibition of human OVCAR8 cells incubated for 48 hrs by sulforhodamine B assay; conditions: OVCAR-8, 48 h
[24] = Growth inhibition of human HOP92 cells incubated for 48 hrs by sulforhodamine B assay; conditions: HOP-92, 48 h
[25] = Cytotoxicity against human IGROV1 cells assessed as cell growth at 10 uM incubated for 48 hrs by sulforhodamine B assay; conditions: IGROV-1, 48 h, read-out: Activity
MDA-MB-231 [26] = assay: Cytotoxicity against human MDA-MB-231 cells assessed as cell growth at 10 uM incubated for 48 hrs by sulforhodamine B assay; conditions: MDA-MB-231, 48 h, read-out: Activity
[27] = Cytotoxicity against human OVCAR4 cells assessed as cell growth at 10 uM incubated for 48 hrs by sulforhodamine B assay; conditions: OVCAR-4, 48 h, read-out: Activity
NCI-H226 = assay: Growth inhibition of human NCI-H226 cells incubated for 48 hrs by sulforhodamine B assay; conditions: NCI-H226, 48 h
[28] = Cytotoxicity against human Hs578T cells assessed as cell growth at 10 uM incubated for 48 hrs by sulforhodamine B assay; conditions: Hs-578T, read-out: Activity
[29] = read-out: LC50 (the source's name)

`Cc1cc(=O)oc2c(C)c(O)c(-c3ccnc(N)n3)cc12` showed a GI50 [1] of 35.8 µM, a TGI [1] of over 100 µM and a CC50 [1, 29] of over 100 µM. It also gave a GI50 (HT-29) of 6.72 µM, a TGI (HT-29) of over 100 µM and a CC50 (HT-29; [29]) of over 100 µM. The GI50 (NCI-H23) was 46 µM, the TGI (NCI-H23) was over 100 µM and the CC50 (NCI-H23; [29]) was over 100 µM. For the same molecule, the GI50 [2] was 17.2 µM, the TGI [2] was over 100 µM and the CC50 [2, 29] was over 100 µM. The GI50 (A549) was 3.03 µM, the TGI (A549) was over 100 µM and the CC50 (A549; [29]) was over 100 µM. It also gave a growth at 10 µM [3] of 57.1%, a GI50 [4] of 13.1 µM and a TGI [4] of over 100 µM. It also gave a CC50 [4, 29] of over 100 µM, a GI50 [5] of over 100 µM and a TGI [5] of over 100 µM. It also gave a CC50 [5, 29] of over 100 µM, a growth at 10 µM [6] of 28.7% and a GI50 [7] of 15.8 µM. It also gave a TGI [7] of over 100 µM, a CC50 [7, 29] of over 100 µM and a growth at 10 µM (SR) of 9.17%. For the same molecule, the growth at 10 µM (Malme-3M [8]) was 66.9%, the growth at 10 µM (MDA-MB-435) was 55% and the GI50 (MDA-MB-231 [9]) was over 100 µM. It also gave a TGI (MDA-MB-231 [9]) of over 100 µM, a CC50 (MDA-MB-231 [9]; [29]) of over 100 µM and a growth at 10 µM [10] of 23%. For the same molecule, the GI50 [11] was 10.9 µM, the TGI [11] was over 100 µM and the CC50 [11, 29] was over 100 µM. For the same molecule, the GI50 [12] was 66.1 µM, the TGI [12] was over 100 µM and the CC50 [12, 29] was over 100 µM. For the same molecule, the GI50 [13] was 5.08 µM, the TGI [13] was 92.9 µM and the CC50 [13, 29] was over 100 µM. It also gave a growth at 10 µM (NCI-H522) of 47%, a GI50 [14] of 3.6 µM and a TGI [14] of over 100 µM. For the same molecule, the CC50 [14, 29] was over 100 µM, the GI50 [15] was over 100 µM and the TGI [15] was over 100 µM. It also gave a CC50 [15, 29] of over 100 µM, a GI50 [16] of 32 µM and a TGI [16] of over 100 µM. The CC50 [16, 29] was over 100 µM, the growth at 10 µM [17] was 60.3% and the GI50 (A498) was 1.44 µM. The TGI (A498) was over 100 µM, the CC50 (A498; [29]) was over 100 µM and the GI50 [18] was 6.85 µM. The TGI [18] was over 100 µM, the CC50 [18, 29] was over 100 µM and the growth at 10 µM [19] was 61.9%. For the same molecule, the GI50 (Malme-3M [20]) was over 100 µM, the TGI (Malme-3M [20]) was over 100 µM and the CC50 (Malme-3M [20]; [29]) was over 100 µM. It also gave a GI50 [21] of over 100 µM, a TGI [21] of over 100 µM and a CC50 [21, 29] of over 100 µM. It also gave a growth at 10 µM [22] of 64.1%, a GI50 [23] of 6.95 µM and a TGI [23] of over 100 µM. The CC50 [23, 29] was over 100 µM, the GI50 [24] was 19.4 µM and the TGI [24] was 93.9 µM. It also gave a CC50 [24, 29] of over 100 µM, a growth at 10 µM [25] of 60.9% and a growth at 10 µM (MDA-MB-231 [26]) of 69%. It also gave a growth at 10 µM [27] of 68.6%, a GI50 (NCI-H226) of 9.84 µM and a TGI (NCI-H226) of over 100 µM. For the same molecule, the CC50 (NCI-H226; [29]) was over 100 µM and the growth at 10 µM [28] was 51%.
